PMC8029449 (ACS chemical neuroscience, 2021)

Assays:
[1] = test system: VEGFR2 phosphorylation at Y1175 in CAD cells; experiment: In cell western for inhibition of VEGFR2 activation by VEGF-A165; format: cell-based, mouse; settings: compounds at 12.5 μM, 1 nM VEGF-A165, 1 hour
VSV-eGFP-SARS-CoV-2 = format: cell-based, vesicular stomatitis virus; settings: 25 µM

Structure (SMILES): NC(N)=NCCC[C@H](NC(=O)c1sccc1NS(=O)(=O)c1cccc2nsnc12)C(=O)O [Compound A]
- block of VEGF-A stimulated increased phosphorylation of VEGFR2 (pY1175) [1]: blocked
- inhibition of VSV-eGFP-SARS-CoV-2 entry into cells (VSV-eGFP-SARS-CoV-2): ineffective
